Experimental data: patent publication US20050165115A1, “Methods and compositions for predicting compliance with an antidepressant treatment regimen” (priority 2003, published 2005)

Experiments:
[1] = test system: outpatients 65 years of age or older with major depressive disorder (MDD); experiment: Efficacy outcome measures (HDRS-17, GDS) in double-blind mirtazapine vs paroxetine study, stratified by 5HTTLPR genotype; assay type: in vivo, human; conditions: for HAMD-17 or GDS, differences among the three genotype groups: patients stratified by 5HTTLPR genotype (S/S, S/L, L/L), any time point
From the text: Genet. 8(3):193-195 (1998).

[2] = test system: outpatients 65 years of age or older with major depressive disorder (MDD); conditions: in vivo
From the text: (§1) The study group included 255 outpatients 65 years of age or older with major depressive disorder (MDD) who were randomized to mirtazapine or paroxetine in a double-blind design at 18 U.S. centers. Details of the study design and overall clinical outcomes have been previously described (Schatzberg et al., Am J Geriatr Psychiatry 10(5):541-550 (2002)). […] At baseline all patients scored above the age-adjusted 25th percentile on the Mini Mental State Exam (MMSE), and all had Hamilton Depression Rating Scale (HDRS-17) scores ≧18. Starting doses were 15 mg for mirtazapine and 20 mg for paroxetine. Dosage for both medications was increased to 30 mg after 14 days, with the option to increase to 45 mg of mirtazapine or 40 mg of paroxetine on subsequent visits. Exclusion criteria were clinically significant unstable medical illness, history of treatment resistance, principal psychiatric diagnoses other than MDD, use of other psychotropics, and electroconvulsive therapy (ECT) within the previous 6 months.
(§2) Genomic DNA was extracted from EDTA-treated frozen whole blood by using a Puregene Kit (Gentra Systems, Minneapolis). 5HTTLPR genotypes were determined by PCR and gel electrophoresis as described in Edenberg et al., Psychiatr. Genet. 8(3):193-195 (1998).
(§3) Plasma drug levels were obtained after 4 weeks of treatment as described (Murphy et al., Biol Psychiatry 54:665-673 (2003)). Efficacy outcome measures (determined at baseline and at day 7,14, 21, 28, 42, and 56) included the Hamilton Depression Rating Scale (HDRS-17) (Hamilton et al., Br J Soc Clin Psychol. 6(4):278-296 (1967)) and the Geriatric Depression Scale (GDS) (Yesavage et al., J. Psychiat. Res. 17:37-49 (1983)). Measures related to adverse events included Medication Compliance, Severity of Adverse Events, Time to Discontinuation of Treatment Regimen due to an adverse event, and number of discontinuations due to an adverse event. Statistical methods included analyses of covariance (adjusted for baseline scores), Cochran-Mantel-Haenszel statistics, and Kaplan-Meier survival analyses. […] Analyses were performed for the entire group and also with 20 ethnic minority patients omitted.

[3] = in vivo
From the text: as §1, §2, §3

SMILES: CN1CCN2c3ncccc3Cc3ccccc3C2C1 (stereo not drawn) [mirtazapine]
- GDS scores, S carriers vs others ([1]; after adjusting for baseline difference, any subsequent time point): not significantly different
- HDRS scores, S allele carriers ([1]; day 14, less depressed, p<0.27): lower HDRS scores
- HAMD-17 or GDS, differences among the three genotype groups [1]: no significant differences
- adverse events associated with L/L genotype discontinuations [2]: drowsiness, dizziness, and anxiety
- frequency of discontinuation of treatment regimen, L/L genotype [2]: most frequent
- relationship between number of L alleles and discontinuation due to adverse events, Caucasian patients [2]: positive linear relationship
- relationship between number of L alleles and probability of discontinuation due to adverse events [2]: positive linear relationship
- severity of adverse events, L/L vs S/S genotype [2]: greater severity
- plasma levels at day 28, differences among the genotype groups [3]: no significant differences

SMILES: Fc1ccc([C@@H]2CCNC[C@H]2COc2ccc3c(c2)OCO3)cc1 [paroxetine]
- HDRS, carriers of the S allele vs others ([1]; FIG. 2B): No differences
- GDS scores, carriers of the S allele ([1]; days 7 (p=0.003) and 28 (p=0.04), adjusted for baseline body weight, higher = more depressed): significantly higher scores
- HAMD-17 or GDS, differences among the three genotype groups [1]: no significant differences
- subjects who discontinued treatment regimen due to adverse events, 5HTTLPR S/S and 5HT2A C/C genotypes ([2]; human): 7 of 10
- adverse events associated with S/S discontinuations [2]: gastrointestinal complaints, fatigue, agitation, sweating, and dizziness
- effects of 5HTTLPR and 5HT2A 102 T/C on discontinuation of treatment regimen due to adverse events [2]: significant effects
- frequency of discontinuation of treatment regimen, L/L genotype [2]: fewest
- frequency of discontinuation of treatment regimen, S/L genotype [2]: intermediate frequency
- frequency of discontinuation of treatment regimen, S/S genotype [2]: most frequent
- interaction term 5HTTLPR x 5HT2A 102 T/C on discontinuation due to adverse events [2]: not significant
- relationship between number of S alleles and discontinuations due to adverse events, Caucasian patients [2]: positive linear relationship
- relationship between number of S alleles and probability of discontinuation due to adverse events [2]: positive linear relationship
- risk of discontinuation of the treatment regimen due to adverse events, S/L vs L/L genotype [2]: significantly greater risk
- severity of adverse events, S/S vs L/L genotype [2]: greater severity
- subjects who discontinued treatment regimen, L/L and T/T genotypes [2]: none
